Among the data in ChEMBL document CHEMBL1132502, “Synthesis of a fluorescent microgonotropen (FMGT-1) and its interactions with the dodecamer d(CCGGAATTCCGG)” (Bioorg Med Chem Lett, 1999) are Ka values, retold here.

This assay concerns Nucleic Acid. Nature of the assay: Association constant (Ka) with DNA dodecamer d(CCGGAATTCCGG) was determined. The format is nucleic-acid assay.

The molecule `CN1CCN(c2ccc3[nH]c(-c4ccc5[nH]c(-c6ccc(O)cc6)nc5c4)nc3c2)CC1` came in with a Ka of 1.3 M⁻¹.
